Results reported in the NIST ThermoML archive (doi:10.1021/je050519g).

Key:
[1] = 293.15 K; for surface tension liquid-gas: Pendant drop shape; for mass density: 101.33 kPa, Liquid
[2] = xn = mol fraction of the nth substance listed; details: 293.15 K; for surface tension liquid-gas: Pendant drop shape; for mass density: 101 kPa, Liquid

CCCCO [butan-1-ol]
[1]
Details | mass density [kg/m3] | surface tension liquid-gas [mN/m]
– | 807.33 | 24.5

CC#N [acetonitrile] + CCCCO
[2]
Details | mass density [kg/m3] | surface tension liquid-gas [mN/m]
x1 = 0.1026 | 805.36 | 24.65
x1 = 0.2021 | 803.18 | 24.78
x1 = 0.302 | 800.8 | 24.94
x1 = 0.5024 | 795.42 | 25.52
x1 = 0.7014 | 789.23 | 26.53
x1 = 0.8007 | 785.7 | 27.25
x1 = 0.8995 | 782.01 | 28.14

CO [methanol]
[1]
Details | mass density [kg/m3] | surface tension liquid-gas [mN/m]
– | 787.83 | 22.78

CCCO [propan-1-ol]
[1]
Details | mass density [kg/m3] | surface tension liquid-gas [mN/m]
– | 801.3 | 23.78

CC#N [acetonitrile] + CCCO
[2]
Details | mass density [kg/m3] | surface tension liquid-gas [mN/m]
x1 = 0.1004 | 799.54 | 24.02
x1 = 0.2018 | 797.63 | 24.23
x1 = 0.3013 | 795.62 | 24.52
x1 = 0.5004 | 791.05 | 25.32
x1 = 0.7003 | 785.97 | 26.5
x1 = 0.8002 | 783.29 | 27.27
x1 = 0.8997 | 780.68 | 28.19

CC#N [acetonitrile] + CCO
[2]
Details | mass density [kg/m3] | surface tension liquid-gas [mN/m]
x1 = 0.0999 | 786.57 | 22.81
x1 = 0.2007 | 785.99 | 23.3
x1 = 0.3039 | 785.05 | 23.85
x1 = 0.5001 | 783.08 | 25.06
x1 = 0.6994 | 780.89 | 26.51
x1 = 0.8013 | 779.8 | 27.36
x1 = 0.8996 | 778.91 | 28.26

CCCCCO [pentan-1-ol] + CC#N
[2]
Details | mass density [kg/m3] | surface tension liquid-gas [mN/m]
x2 = 0.1003 | 812.2 | 25.49
x2 = 0.2031 | 809.06 | 25.54
x2 = 0.3014 | 806.03 | 25.57
x2 = 0.5003 | 799.64 | 25.82
x2 = 0.7 | 792.42 | 26.64
x2 = 0.8001 | 788.11 | 27.29
x2 = 0.8993 | 783.38 | 28.11

CCO [ethanol]
[1]
Details | mass density [kg/m3] | surface tension liquid-gas [mN/m]
– | 786.44 | 22.31

CC#N [acetonitrile] + CO
[2]
Details | mass density [kg/m3] | surface tension liquid-gas [mN/m]
x1 = 0.1001 | 788.46 | 23.8
x1 = 0.2011 | 788.04 | 24.73
x1 = 0.2996 | 787.13 | 25.53
x1 = 0.4997 | 784.82 | 26.85
x1 = 0.7012 | 782.13 | 27.94
x1 = 0.8009 | 780.75 | 28.42
x1 = 0.8956 | 779.47 | 28.85

CC#N [acetonitrile]
[1]
Details | mass density [kg/m3] | surface tension liquid-gas [mN/m]
– | 778.3 | 29.25

CCCCCO [pentan-1-ol]
[1]
Details | mass density [kg/m3] | surface tension liquid-gas [mN/m]
– | 815.11 | 25.46
